Laboratory results as given in publication PMC9698010 (Pharmaceutics, 2022).
Structures can show the parent of a compound that is named as a salt.

Experiments:
IL-6 [1] = test: LPS-induced inflammation, capsule studies: colonic tissue IL-6; format: in vivo, male Lewis rats; conditions: 1 mg/kg dexamethasone oral; targeted vs untargeted comparison, 8 h analysis
IL-6 [2] = test: LPS-induced inflammation, ascending dose oral solution study: plasma IL-6; format: in vivo, male Lewis rats; conditions: 1 mg/kg dexamethasone solution, 4 hours after administration
Experimental: (§1) Male Lewis rats were fasted overnight before the day of experiment. Rats were chosen as an in vivo model in these experiments as they are commonly used for assessment of IBD investigatory treatments. […] To induce intestinal inflammation, rats were intraperitoneally injected with 1 mg/kg LPS at T1 h. Intraperitoneal injection of LPS is an accepted method for instigating inflammation in rats as pharmacodynamic endpoints. […] Controls used in this study were naïve rats (no induction of inflammation, placebo treatment (PBS)), treatment-free rats (LPS + vehicle (PBS)), and comparative treatment control rats (induction of inflammation, treatment with 1 mg/kg oral dexamethasone solution, formulated in PEG400/polysorbate 80 in deionized water (10/9/81). Rats not treated with LPS were instead injected with the same volume of PBS solution.

IL-6 [3] = test: LPS-induced inflammation, ascending dose oral solution study: colonic tissue IL-6; format: in vivo, male Lewis rats; conditions: 4 hours
Experimental: as §1

IL-6 [4] = test: LPS-induced inflammation, capsule studies: plasma IL-6; format: in vivo, male Lewis rats
Experimental: To induce intestinal inflammation, 1 mg/kg LPS was injected intraperitoneally into rats at T5 h, this timing was chosen based on the CT imaging results, to allow capsules to reach the intestines. Inflammation-free control rats were instead intraperitoneally injected with an equal volume of PBS. Controls used in this study were naïve rats (no induction of inflammation, vehicle treatment (PBS)), treatment-free rats (LPS + vehicle (PBS)), and comparative treatment control rats (induction of inflammation, treatment with 1 mg/kg oral dexamethasone solution, formulated in PEG400/polysorbate 80 in deionized water (10/9/81), at T4 h). Animal sacrifice occurred at T8 h (3 h after LPS administration). Terminal plasma and colonic tissue were subsequently excised, and levels of IL-6 quantified using the V-PLEX validated immunoassay kit.

rat colonic microbiota = test: Ex vivo stability of tofacitinib in rat cecal slurry (colonic microbiota); format: in vitro ADME; conditions: 1 mg/mL in rat cecal slurry, anaerobic
Experimental: The cecum of healthy rats (male, n = 6) was obtained shortly following animal sacrifice and transferred to an anaerobic workstation (Electrotek 500TG workstation, Electrotek, West Yorkshire, UK) maintained at 37 °C and 70% relative humidity. The rats’ cecums were opened and fluid was collected using aseptic technique to preserve the fluid’s microbial composition. Next, the fluid was homogenised with basal media (ratio 1:4, composition as used by Hughes et al. [29] at 10,000 rpm and sieved through a mesh with 5 µm aperture.
Samples were taken at 0, 1, 2, 4, and 6 h and immediately quenched with ice-cold acetonitrile at a ratio of 1:3 to arrest microbial/enzyme activity. Quenched samples were then centrifuged (9600× g, 10 min, 4 °C) and the supernatant was collected for quantification of drug concentration using HPLC.
A mobile phase consisting of 0.1% phosphoric acid in water (A) and acetonitrile (B) was used via a gradient method, whereby %A: 95 and %B: 5 from 0.0–4.0 min; and %A: 80 and %B: 20 from 4.0–6.0 min. An Agilent Zorbax-Extend C18 column (50 × 4.6 mm, 1.8 μm) (Santa Clara, CA, USA) at 1.8 mL/min, with column temperature equilibrated at 40 ± 2 °C. […] Drug concentration was calculated by comparing the area under the curve (AUC) of the drug’s peak in samples to those produced with a calibration curve.

[5] = 1 and 10 mg/kg tofacitinib solution

time stable when delivered to the cecum/colon (rat colonic microbiota) | SMILES | IL-6 concentration in colonic tissue compared to the untreated control (IL-6 [1]) | IL-6 levels in plasma compared to the LPS + vehicle control (IL-6 [2]) | colonic tissue IL-6 compared to the treatment-free control (IL-6 [3]; 1 mg/kg dexamethasone) | plasma IL-6 levels compared to the untreated control (IL-6 [4]; 1 mg/kg dexamethasone oral, targeted vs untargeted comparison, 8 h) | plasma IL-6 compared to the untreated control (IL-6 [4]; 1 mg/kg oral dexamethasone solution, dose response study) | colonic IL-6 concentrations compared to the naïve rats (IL-6 [3]; [5]) | colonic tissue IL-6 compared to 0.1 mg/kg tofacitinib (IL-6 [3]; [5])
– | C[C@@H]1C[C@H]2[C@@H]3CCC4=CC(=O)C=C[C@]4(C)[C@@]3(F)[C@@H](O)C[C@]2(C)[C@@]1(O)C(=O)CO [dexamethasone] | did not significantly alter | significantly lower | significantly lowered | significantly reduce | lowered | – | –
at least 6 h | C[C@@H]1CCN(C(=O)CC#N)C[C@@H]1N(C)c1ncnc2[nH]ccc12 [tofacitinib, Tofacitinib citrate] | – | – | – | – | – | no significant difference | significantly lower
